In brackets after ≈: the same amount, converted by molar mass.
Tests used:
Type in all cases: functional
Enterobacter cloacae [1] = assay: Antibacterial activity against polymyxin-susceptible Enterobacter cloacae FADD1-EC001 clinical isolates assessed as reduction in bacterial growth by broth microdilution method
Acinetobacter baumannii [2] = assay: Antibacterial activity against polymyxin-susceptible Acinetobacter baumannii ATCC 17978 clinical isolates assessed as reduction in bacterial growth by broth microdilution method
Klebsiella pneumoniae [3] = assay: Antibacterial activity against Carbapenem-resistant Klebsiella pneumoniae FADD1-KP022 clinical isolates assessed as reduction in bacterial growth by broth microdilution method
Acinetobacter baumannii [4] = assay: Antibacterial activity against Carbapenem-resistant Acinetobacter baumannii FADD1-AB030 clinical isolates assessed as reduction in bacterial growth by broth microdilution method
Acinetobacter baumannii [5] = assay: Antibacterial activity against polymyxin-susceptible Acinetobacter baumannii ATCC 19606 clinical isolates assessed as reduction in bacterial growth by broth microdilution method
Pseudomonas aeruginosa [6] = assay: Antibacterial activity against polymyxin-susceptible Pseudomonas aeruginosa FADD1-PA025 clinical isolates assessed as reduction in bacterial growth by broth microdilution method
Enterobacter cloacae [7] = assay: Antibacterial activity against polymyxin-susceptible Enterobacter cloacae FADD1-EC006 clinical isolates assessed as reduction in bacterial growth by broth microdilution method
Pseudomonas aeruginosa [8] = assay: Antibacterial activity against polymyxin-susceptible Pseudomonas aeruginosa FADD1-PA038 clinical isolates assessed as reduction in bacterial growth by broth microdilution method
Enterobacter cloacae [9] = assay: Antibacterial activity against polymyxin-susceptible Enterobacter cloacae FADD1-EC003 clinical isolates assessed as reduction in bacterial growth by broth microdilution method
Pseudomonas aeruginosa [10] = assay: Antibacterial activity against Carbapenem-resistant Pseudomonas aeruginosa FADD1-PA001 clinical isolates assessed as reduction in bacterial growth by broth microdilution method
Acinetobacter baumannii [11] = assay: Antibacterial activity against Carbapenem-resistant Acinetobacter baumannii FADD1-AB034 clinical isolates assessed as reduction in bacterial growth by broth microdilution method
Klebsiella pneumoniae [12] = assay: Antibacterial activity against polymyxin-susceptible Klebsiella pneumoniae ATCC 700721 clinical isolates assessed as reduction in bacterial growth by broth microdilution method
Pseudomonas aeruginosa [13] = assay: Antibacterial activity against Carbapenem-resistant Pseudomonas aeruginosa FADD1-PA022 clinical isolates assessed as reduction in bacterial growth by broth microdilution method
Klebsiella pneumoniae [14] = assay: Antibacterial activity against Carbapenem-resistant Klebsiella pneumoniae BM1 clinical isolates assessed as reduction in bacterial growth by broth microdilution method
Klebsiella pneumoniae [15] = assay: Antibacterial activity against Carbapenem-resistant Klebsiella pneumoniae FADD1-KP032 clinical isolates assessed as reduction in bacterial growth by broth microdilution method
Pseudomonas aeruginosa [16] = assay: Antibacterial activity against polymyxin-susceptible Pseudomonas aeruginosa ATCC 27853 clinical isolates assessed as reduction in bacterial growth by broth microdilution method
Klebsiella pneumoniae [17] = assay: Antibacterial activity against Carbapenem-resistant Klebsiella pneumoniae FADD1-KP065 clinical isolates assessed as reduction in bacterial growth by broth microdilution method

Structure (SMILES)	MIC (Enterobacter cloacae [1]) [µg/mL]	MIC (Acinetobacter baumannii [2]) [µg/mL]	MIC (Klebsiella pneumoniae [3]) [µg/mL]	MIC (Acinetobacter baumannii [4]) [µg/mL]	MIC (Acinetobacter baumannii [5]) [µg/mL]	MIC (Pseudomonas aeruginosa [6]) [µg/mL]	MIC (Enterobacter cloacae [7]) [µg/mL]	MIC (Pseudomonas aeruginosa [8]) [µg/mL]	MIC (Enterobacter cloacae [9]) [µg/mL]	MIC (Pseudomonas aeruginosa [10]) [µg/mL]	MIC (Acinetobacter baumannii [11]) [µg/mL]	MIC (Klebsiella pneumoniae [12]) [µg/mL]	MIC (Pseudomonas aeruginosa [13]) [µg/mL]	MIC (Klebsiella pneumoniae [14]) [µg/mL]	MIC (Klebsiella pneumoniae [15]) [µg/mL]	MIC (Pseudomonas aeruginosa [16]) [µg/mL]	MIC (Klebsiella pneumoniae [17]) [µg/mL]
CC[C@H](C)CCCCC(=O)N[C@@H](CCN)C(=O)N[C@H](C(=O)N[C@@H](CCN)C(=O)N[C@H]1CCNC(=O)[C@H](C(C)(C)O)NC(=O)[C@H](CCN)NC(=O)[C@H](CCN)NC(=O)[C@H](CC(C)C)NC(=O)[C@@H](Cc2ccccc2)NC(=O)[C@H](CCN)NC1=O)[C@@H](C)O	16 (≈ 13.1 µM)	8 (≈ 6.57 µM)	1 (≈ 0.821 µM)	8 (≈ 6.57 µM)	8 (≈ 6.57 µM)	2 (≈ 1.64 µM)	16 (≈ 13.1 µM)	8 (≈ 6.57 µM)	4 (≈ 3.29 µM)	2 (≈ 1.64 µM)	8 (≈ 6.57 µM)	4 (≈ 3.29 µM)	1 (≈ 0.821 µM)	1 (≈ 0.821 µM)	2 (≈ 1.64 µM)	1 (≈ 0.821 µM)	1 (≈ 0.821 µM)
CC[C@H](C)CCCCC(=O)N[C@@H](CCN)C(=O)N[C@H](C(=O)N[C@@H](CCN)C(=O)N[C@H]1CCNC(=O)[C@H](CC(=O)O)NC(=O)[C@H](CCN)NC(=O)[C@H](CCN)NC(=O)[C@H](CC(C)C)NC(=O)[C@@H](Cc2ccccc2)NC(=O)[C@H](CCN)NC1=O)[C@@H](C)O	> 32	> 32	16 (≈ 13.1 µM)	> 32	> 32	> 32	> 32	> 32	> 32	> 32	> 32	> 32	8 (≈ 6.57 µM)	32 (≈ 26.3 µM)	32 (≈ 26.3 µM)	> 32	16 (≈ 13.1 µM)
CC[C@H](C)CCCCC(=O)N[C@@H](CCN)C(=O)N[C@H](C(=O)N[C@@H](CCN)C(=O)N[C@H]1CCNC(=O)[C@H](Cc2c[nH]c3ccccc23)NC(=O)[C@H](CCN)NC(=O)[C@H](CCN)NC(=O)[C@H](CC(C)C)NC(=O)[C@@H](Cc2ccccc2)NC(=O)[C@H](CCN)NC1=O)[C@@H](C)O	8 (≈ 6.21 µM)	4 (≈ 3.1 µM)	1 (≈ 0.776 µM)	2 (≈ 1.55 µM)	2 (≈ 1.55 µM)	2 (≈ 1.55 µM)	4 (≈ 3.1 µM)	4 (≈ 3.1 µM)	8 (≈ 6.21 µM)	4 (≈ 3.1 µM)	4 (≈ 3.1 µM)	8 (≈ 6.21 µM)	2 (≈ 1.55 µM)	4 (≈ 3.1 µM)	4 (≈ 3.1 µM)	2 (≈ 1.55 µM)	2 (≈ 1.55 µM)
CC[C@H](C)CCCCC(=O)N[C@@H](CCN)C(=O)N[C@H](C(=O)N[C@@H](CCN)C(=O)N[C@H]1CCNC(=O)CNC(=O)[C@H](CCN)NC(=O)[C@H](CCN)NC(=O)[C@H](CC(C)C)NC(=O)[C@@H](Cc2ccccc2)NC(=O)[C@H](CCN)NC1=O)[C@@H](C)O	4 (≈ 3.45 µM)	4 (≈ 3.45 µM)	1 (≈ 0.862 µM)	> 32	> 32	2 (≈ 1.72 µM)	4 (≈ 3.45 µM)	8 (≈ 6.9 µM)	4 (≈ 3.45 µM)	1 (≈ 0.862 µM)	32 (≈ 27.6 µM)	8 (≈ 6.9 µM)	0.5 (≈ 0.431 µM)	> 32	4 (≈ 3.45 µM)	0.5 (≈ 0.431 µM)	0.5 (≈ 0.431 µM)
CC[C@H](C)CCCCC(=O)N[C@@H](CCN)C(=O)N[C@H](C(=O)N[C@@H](CCN)C(=O)N[C@H]1CCNC(=O)[C@H](Cc2ccccc2)NC(=O)[C@H](CCN)NC(=O)[C@H](CCN)NC(=O)[C@H](CC(C)C)NC(=O)[C@@H](Cc2ccccc2)NC(=O)[C@H](CCN)NC1=O)[C@@H](C)O	4 (≈ 3.2 µM)	2 (≈ 1.6 µM)	1 (≈ 0.8 µM)	0.5 (≈ 0.4 µM)	2 (≈ 1.6 µM)	2 (≈ 1.6 µM)	4 (≈ 3.2 µM)	4 (≈ 3.2 µM)	4 (≈ 3.2 µM)	1 (≈ 0.8 µM)	2 (≈ 1.6 µM)	2 (≈ 1.6 µM)	1 (≈ 0.8 µM)	2 (≈ 1.6 µM)	1 (≈ 0.8 µM)	1 (≈ 0.8 µM)	1 (≈ 0.8 µM)
C/C=C1/NC(=O)[C@H](CCN)NC(=O)[C@H](CCN)NC(=O)[C@H](CC(C)C)NC(=O)[C@@H](Cc2ccccc2)NC(=O)[C@H](CCN)NC(=O)[C@@H](NC(=O)[C@H](CCN)NC(=O)[C@@H](NC(=O)[C@H](CCN)NC(=O)CCCC[C@@H](C)CC)[C@@H](C)O)CCNC1=O	> 32	1 (≈ 0.844 µM)	2 (≈ 1.69 µM)	2 (≈ 1.69 µM)	4 (≈ 3.37 µM)	2 (≈ 1.69 µM)	> 32	16 (≈ 13.5 µM)	> 32	4 (≈ 3.37 µM)	2 (≈ 1.69 µM)	16 (≈ 13.5 µM)	1 (≈ 0.844 µM)	8 (≈ 6.75 µM)	8 (≈ 6.75 µM)	2 (≈ 1.69 µM)	4 (≈ 3.37 µM)

From ChEMBL document CHEMBL5316337, “Critical Role of Position 10 Residue in the Polymyxin Antimicrobial Activity” (J Med Chem, 2023)
